Laboratory results published in the supplement of paper PMC11061612.

Assays:
[1] = compound: CN(CC[C@H](CSC1=CC=CC=C1)NC2=C(C=C(C=C2)S(=O)(=O)NC(=O)C3=CC=C(C=C3)N4CCC(CC4)[C@H](C5=CC=CC=C5C6=CC=C(C=C6)Cl)O)S(=O)(=O)C(F)(F)F)CCO [AZD4320]; conditions: max 1 µM
How it was run: (§1)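 Cancer cell lines were seeded into 1536-well plates in 7.5 μl medium (DMEM/F12 or RPMI, 10% FBS), held 24 hours at 37°C and 5% CO2, and dosed for 72 hours with final DMSO typically 0.2%. Luminescence from CellTiter-Glo 2.0, scaled between blank-well and DMSO-well means, served as viability. The single-agent IC50 was obtained from dose-response fits with a non-linear mixed effects model, each fit being a two-parameter logistic curve.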

[2] = compound: CS(=O)(=O)CCNCc1ccc(-c2ccc3ncnc(Nc4ccc(OCc5cccc(F)c5)c(Cl)c4)c3c2)o1 [Lapatinib]; conditions: max 10 µM
How it was run: as §1

[3] = compound: Cc1cc2ncnn2cc1Nc1ncc2c(n1)n(C1CCOCC1)c(=O)n2C [AZD7648]; conditions: max 10 µM
How it was run: as §1

[4] = compound: CC(=O)c1c(C)c2cnc(Nc3ccc(N4CCNCC4)cn3)nc2n(C2CCCC2)c1=O [Palbociclib]; conditions: max 10 µM
How it was run: as §1

[5] = compound: CC(C)n1c(=O)n(C)c2cnc3cc(F)c(-c4ccc(OCCCN5CCCCC5)nc4)cc3c21 [AZD1390]; conditions: max 0.3 µM
How it was run: as §1

[6] = compound: C[C@@H](Oc1cc(-c2cnn(C3CCNCC3)c2)cnc1N)c1c(Cl)ccc(F)c1Cl [Crizotinib]; conditions: max 10 µM
How it was run: as §1

[7] = compound: C1CN(CCC1(C(=O)N[C@@H](CCO)C2=CC=C(C=C2)Cl)N)C3=NC=NC4=C3C=CN4 [AZD5363]; conditions: max 10 µM
How it was run: as §1

[8] = compound: COc1cc(Nc2ncc3c(n2)-c2ccc(Cl)cc2C(c2c(F)cccc2OC)=NC3)ccc1C(=O)O [Alisertib]; conditions: max 10 µM
How it was run: as §1

[9] = compound: CCc1c2c(nc3ccc(O)cc13)-c1cc3c(c(=O)n1C2)COC(=O)[C@]3(O)CC [SN-38]; conditions: max 0.3 µM
How it was run: as §1

[10] = compound: C=CCn1c(=O)c2cnc(Nc3ccc(N4CCN(C)CC4)cc3)nc2n1-c1cccc(C(C)(C)O)n1 [AZD1775]; conditions: max 3 µM
How it was run: as §1

[11] = compound: COc1nnc2ccc(N3CCC(c4ccc(OCCN5CCN(C)C(=O)[C@H]5C)cc4)CC3)nn12 [AZD5153]; conditions: max 1 µM
How it was run: as §1

[12] = compound: O=C(Nc1ccc2[nH]nc(-c3ccncc3)c2c1)[C@@H]1CCN(CC(=O)N2CCN(c3ccc(-c4ncccn4)cc3)CC2)C1; conditions: max 5 µM
How it was run: as §1

[13] = compound: C[C@@H](Nc1cc(F)cc(F)c1)c1cc(C(=O)N(C)C)cc2c(=O)cc(N3CCOCC3)oc12 [AZD8186]; conditions: max 10 µM
How it was run: as §1

[14] = compound: COc1cccc(OCCCN)c1-c1cc(Nc2cnc(C#N)cn2)n[nH]1 [Prexasertib]; conditions: max 1 µM
How it was run: as §1

[15] = compound: C[C@@H]1COCCN1C2=NC(=NC(=C2)C3(CC3)[S@](=N)(=O)C)C4=C5C=CNC5=NC=C4 [AZD6738]; conditions: max 10 µM
How it was run: as §1

[16] = compound: CN(C)CCCOc1ccc(-c2ccc3ncc4c(c3c2)n(C2CCOCC2)c(=O)n4C)cn1 [AZD0156]; conditions: max 3 µM
How it was run: as §1

[17] = compound: COc1cccc2c1C(=O)c1c(O)c3c(c(O)c1C2=O)C[C@@](O)(C(=O)CO)C[C@@H]3O[C@H]1C[C@H](N)[C@H](O)[C@H](C)O1 [Doxorubicin]; conditions: max 1 µM
How it was run: as §1

[18] = compound: CC(=O)O[C@H]1C(=O)[C@@]2(C)[C@H]([C@H](OC(=O)c3ccccc3)[C@]3(O)C[C@H](OC(=O)[C@H](O)[C@@H](NC(=O)c4ccccc4)c4ccccc4)C(C)=C1C3(C)C)[C@]1(OC(C)=O)CO[C@@H]1C[C@@H]2O [Paclitaxel]; conditions: max 3 µM
How it was run: as §1

[19] = compound: CCN(CCO)CCCOc1ccc2c(Nc3cc(CC(=O)Nc4cccc(F)c4)[nH]n3)ncnc2c1 [AZD2811]; conditions: max 1 µM
How it was run: as §1

[20] = compound: Cc1c2c(nn1C)CSCc1cc(n(C)n1)CSc1cc(c3ccccc3c1)OCCCc1c(C(=O)O)n(C)c3c-2c(Cl)ccc13 [AZD5991]; conditions: max 1 µM
How it was run: as §1

[21] = compound: CC(=O)Nc1cccc(-n2c(=O)n(C3CC3)c(=O)c3c(Nc4ccc(I)cc4F)n(C)c(=O)c(C)c32)c1 [Trametinib]; conditions: max 1 µM
How it was run: as §1

[22] = compound: O=c1[nH]cc(F)c(=O)[nH]1 [5-Fluorouracil]; conditions: max 20 µM
How it was run: as §1

[23] = compound: C[C@@H](c1ccc2nccn2c1)n1nnc2ncc(-c3cnn(C)c3)nc21 [Savolitinib]; conditions: max 1 µM
How it was run: as §1

[24] = compound: O=C(c1cc(Cc2n[nH]c(=O)c3ccccc23)ccc1F)N1CCN(C(=O)C2CC2)CC1 [Olaparib]; conditions: max 10 µM
How it was run: as §1

[25] = compound: Cc1nc(-c2cn3c(n2)-c2ccc(-c4cnn(C(C)(C)C(N)=O)c4)cc2OCC3)n(C(C)C)n1 [Taselisib]; conditions: max 10 µM
How it was run: as §1

[26] = compound: COc1cc([C@@H]2c3cc4c(cc3[C@@H](O[C@@H]3O[C@@H]5CO[C@@H](C)O[C@H]5[C@H](O)[C@H]3O)[C@H]3COC(=O)[C@H]23)OCO4)cc(OC)c1O [Etoposide]; conditions: max 10 µM
How it was run: as §1

[27] = compound: CC1=C(C(=CC=C1)Cl)NC(=O)C2=CN=C(S2)NC3=CC(=NC(=N3)C)N4CCN(CC4)CCO [Dasatinib]; conditions: max 2 µM
How it was run: as §1

[28] = compound: Cn1cnc2c(F)c(Nc3ccc(Br)cc3Cl)c(C(=O)NOCCO)cc21 [Selumetinib]; conditions: max 10 µM
How it was run: as §1

[29] = compound: COc1cc2ncnc(Nc3ccc(F)c(Cl)c3)c2cc1OCCCN1CCOCC1 [Gefitinib]; conditions: max 10 µM
How it was run: as §1

[30] = compound: N#Cc1cnc(Nc2cc(NC[C@H]3CNCCO3)c(C(F)(F)F)cn2)cn1 [SRA737]; conditions: max 10 µM
How it was run: as §1

[31] = compound: C1CC(C1)(C(=O)[O-])C(=O)[O-].N.N.[Pt+2] [Carboplatin]; conditions: max 10 µM
How it was run: as §1

[32] = compound: CC1=CN2[C@@H](C1)C=NC3=CC(=C(C=C3C2=O)OC)OCCCCCOC4=C(C=C5C(=C4)N=C[C@@H]6CC(=CN6C5=O)C)OC [SG3199]; conditions: max 0.001 µM
How it was run: as §1

[33] = compound: NC1(c2ccc(-c3nc4ccn5c(=O)[nH]nc5c4cc3-c3ccccc3)cc2)CCC1 [MK-2206]; conditions: max 10 µM
How it was run: as §1

[34] = compound: CC1(C)CCC(CN2CCN(c3ccc(C(=O)NS(=O)(=O)c4ccc(NCC5CCOCC5)c([N+](=O)[O-])c4)c(Oc4cnc5[nH]ccc5c4)c3)CC2)=C(c2ccc(Cl)cc2)C1 [Venetoclax]; conditions: max 1 µM
How it was run: as §1

[35] = compound: Nc1ccn([C@@H]2O[C@H](CO)[C@@H](O)C2(F)F)c(=O)n1 [Gemcitabine]; conditions: max 0.3 µM
How it was run: as §1

Cell Line	IC50, cell viability 72 h [1] [nM]	IC50, cell viability 72 h [2] [nM]	IC50, cell viability 72 h [3] [nM]	IC50, cell viability 72 h [4] [nM]	IC50, cell viability 72 h [5] [nM]	IC50, cell viability 72 h [6] [nM]	IC50, cell viability 72 h [7] [nM]	IC50, cell viability 72 h [8] [nM]	IC50, cell viability 72 h [9] [nM]	IC50, cell viability 72 h [10] [nM]	IC50, cell viability 72 h [11] [nM]	IC50, cell viability 72 h [12] [nM]	IC50, cell viability 72 h [13] [nM]	IC50, cell viability 72 h [14] [nM]	IC50, cell viability 72 h [15] [nM]	IC50, cell viability 72 h [16] [nM]	IC50, cell viability 72 h [17] [nM]	IC50, cell viability 72 h [18] [nM]	IC50, cell viability 72 h [19] [nM]	IC50, cell viability 72 h [20] [nM]	IC50, cell viability 72 h [21] [nM]	IC50, cell viability 72 h [22] [nM]	IC50, cell viability 72 h [23] [nM]	IC50, cell viability 72 h [24] [nM]	IC50, cell viability 72 h [25] [nM]	IC50, cell viability 72 h [26] [nM]	IC50, cell viability 72 h [27] [nM]	IC50, cell viability 72 h [28] [nM]	IC50, cell viability 72 h [29] [nM]	IC50, cell viability 72 h [30] [nM]	IC50, cell viability 72 h [31] [nM]	IC50, cell viability 72 h [32] [nM]	IC50, cell viability 72 h [33] [nM]	IC50, cell viability 72 h [34] [nM]	IC50, cell viability 72 h [35] [nM]
LCLC-103H (Non-Small Cell Lung Carcinoma)	> 1000	> 10000	> 10000	> 10000	> 300	> 10000	> 10000	> 10000	> 300	2190	> 1000	> 5000	> 10000	88.1	> 10000	> 3000	> 1000	17.8	> 1000	> 1000	> 1000	> 20000	> 1000	> 10000	> 10000	> 10000	> 2000	> 10000	> 10000	> 10000	> 10000	> 1	> 10000	> 1000	> 300
NAMALWA (Burkitt's Lymphoma)	> 1000	> 10000	> 10000	9880	> 300	2320	9010	689	2.63	300	43.1	> 5000	7520	10.5	1140	> 3000	41.4	4.84	> 1000	61.1	> 1000	14500	> 1000	> 10000	2020	272	> 2000	> 10000	> 10000	1670	> 10000	> 1	8200	> 1000	6.04
SK-CO-1 (Colorectal Carcinoma)	700	> 10000	> 10000	> 10000	> 300	1800	> 10000	3130	5.9	1240	> 1000	85.6	9810	248	6580	> 3000	185	4.07	383	> 1000	5.27	> 20000	> 1000	> 10000	1220	2140	> 2000	1120	> 10000	> 10000	> 10000	> 1	> 10000	> 1000	9.48
